Data set [1] concerns Ba/F3_CSF-1R (stably expressing human CSF-1R kinase). The data set is described as follows: Cell proliferation assay, Ba/F3_CSF-1R. The conditions noted are these: BaF3, 72 h, read-out: CSF-1R BaF3 EC50 (nM). The class given is cell-based.
Data set [2] relates to primary rat microglia. Description: Primary rat microglia survival. The conditions noted are these: 3 days of exposure, Iba1 staining. The data set is classed as cell-based. From the text: To assess the potency of CSF1R inhibitors disclosed herein we isolated and expanded primary brain glia from rat cortices in-vitro. This glial culture is about 20% microglia that is supported mostly by astrocytes that make up the rest of the population. The brain glia was exposed to CSF1R inhibitors for 3 days followed by paraformaldehyde fixation and immunofluorescence staining for the microglia marker, Iba1. The glial was imaged using a high-content-imager and the changes in microglia content were quantified. Using GraphPad Prism, a four-parameter logistic regression was applied to determine the potency of the CSF1R inhibitors.

A short description of data set [3]: Brain protein binding study. The data set is classed as in vitro ADME. The conditions noted are these: mouse brain homogenate, equilibrium dialysis 4 hours.
Data set [4] has as its target c-Kit (Homo sapiens (Human), UniProt P10721). Description: Biochemical HTRF kinase assay, c-Kit.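 Note: enzyme reaction with substrate and ATP run in 384-well plates for 1 hour at room temperature, kinase activity detected by HTRF.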
Data set [5] can be described thus: In vivo PK study (plasma and brain exposure). Also noted: species or system CD1 mouse. The conditions noted are these: for half-life: CD1, mouse. A digest of the protocol:
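Male CD1 mice (23-30 g, 6-8 weeks) dosed at 45 mg/kg p.o. or 2 mg/kg i.v. Serum and brain samples collected and quantified by LC-MS/MS.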

Data set [6] relates to human iPSC-derived microglia (hiPSC-MG). Description: hiPSC-MG survival (Presto-Blue viability). The conditions noted are these: 48 h treatment. The data set is classed as cell-based.
For data set [7], the target named is PDGFRβ (Homo sapiens (Human), UniProt P09619). The data set is described as follows: Biochemical HTRF kinase assay, PDGFRβ.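 Note: kinase reaction with substrate/ATP mix run 1 h at room temperature in 384-well format, HTRF signal detection.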

Molecules are shown by their SMILES. pIC50: −log10 of the molar value. Like-named read-outs stand apart in the source and are kept apart here. A value given as a limit tells only on which side of the number the result lay.

Chain of PDGFRβ (P09619 33-1106): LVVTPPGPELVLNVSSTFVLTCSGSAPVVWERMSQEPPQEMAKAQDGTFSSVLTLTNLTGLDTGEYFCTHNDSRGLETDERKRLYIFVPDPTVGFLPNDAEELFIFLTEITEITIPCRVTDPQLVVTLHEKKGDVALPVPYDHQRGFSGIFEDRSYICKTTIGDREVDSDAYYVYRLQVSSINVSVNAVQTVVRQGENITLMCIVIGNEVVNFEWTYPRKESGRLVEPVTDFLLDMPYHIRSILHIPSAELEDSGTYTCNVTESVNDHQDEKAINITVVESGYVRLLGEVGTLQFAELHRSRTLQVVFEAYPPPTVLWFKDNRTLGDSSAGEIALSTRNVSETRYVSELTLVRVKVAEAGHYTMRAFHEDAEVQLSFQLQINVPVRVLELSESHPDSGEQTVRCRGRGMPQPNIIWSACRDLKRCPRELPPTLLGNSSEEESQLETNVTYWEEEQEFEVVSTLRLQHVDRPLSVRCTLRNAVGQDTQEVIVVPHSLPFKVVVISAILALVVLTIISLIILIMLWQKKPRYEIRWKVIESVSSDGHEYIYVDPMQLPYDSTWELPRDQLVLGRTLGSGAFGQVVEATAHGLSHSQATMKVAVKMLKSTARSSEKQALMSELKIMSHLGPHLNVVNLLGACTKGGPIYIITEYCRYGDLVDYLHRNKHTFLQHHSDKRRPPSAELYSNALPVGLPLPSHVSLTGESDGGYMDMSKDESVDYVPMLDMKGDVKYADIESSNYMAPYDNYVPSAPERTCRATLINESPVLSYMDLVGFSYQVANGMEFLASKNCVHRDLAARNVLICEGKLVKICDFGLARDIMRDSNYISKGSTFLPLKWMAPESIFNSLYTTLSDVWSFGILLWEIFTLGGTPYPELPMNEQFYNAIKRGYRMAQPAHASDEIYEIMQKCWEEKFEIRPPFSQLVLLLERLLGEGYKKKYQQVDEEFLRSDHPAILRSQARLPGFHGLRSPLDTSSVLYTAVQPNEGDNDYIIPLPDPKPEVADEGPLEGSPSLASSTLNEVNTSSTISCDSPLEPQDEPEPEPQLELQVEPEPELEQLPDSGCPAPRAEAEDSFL
Chain of c-Kit (P10721 26-976): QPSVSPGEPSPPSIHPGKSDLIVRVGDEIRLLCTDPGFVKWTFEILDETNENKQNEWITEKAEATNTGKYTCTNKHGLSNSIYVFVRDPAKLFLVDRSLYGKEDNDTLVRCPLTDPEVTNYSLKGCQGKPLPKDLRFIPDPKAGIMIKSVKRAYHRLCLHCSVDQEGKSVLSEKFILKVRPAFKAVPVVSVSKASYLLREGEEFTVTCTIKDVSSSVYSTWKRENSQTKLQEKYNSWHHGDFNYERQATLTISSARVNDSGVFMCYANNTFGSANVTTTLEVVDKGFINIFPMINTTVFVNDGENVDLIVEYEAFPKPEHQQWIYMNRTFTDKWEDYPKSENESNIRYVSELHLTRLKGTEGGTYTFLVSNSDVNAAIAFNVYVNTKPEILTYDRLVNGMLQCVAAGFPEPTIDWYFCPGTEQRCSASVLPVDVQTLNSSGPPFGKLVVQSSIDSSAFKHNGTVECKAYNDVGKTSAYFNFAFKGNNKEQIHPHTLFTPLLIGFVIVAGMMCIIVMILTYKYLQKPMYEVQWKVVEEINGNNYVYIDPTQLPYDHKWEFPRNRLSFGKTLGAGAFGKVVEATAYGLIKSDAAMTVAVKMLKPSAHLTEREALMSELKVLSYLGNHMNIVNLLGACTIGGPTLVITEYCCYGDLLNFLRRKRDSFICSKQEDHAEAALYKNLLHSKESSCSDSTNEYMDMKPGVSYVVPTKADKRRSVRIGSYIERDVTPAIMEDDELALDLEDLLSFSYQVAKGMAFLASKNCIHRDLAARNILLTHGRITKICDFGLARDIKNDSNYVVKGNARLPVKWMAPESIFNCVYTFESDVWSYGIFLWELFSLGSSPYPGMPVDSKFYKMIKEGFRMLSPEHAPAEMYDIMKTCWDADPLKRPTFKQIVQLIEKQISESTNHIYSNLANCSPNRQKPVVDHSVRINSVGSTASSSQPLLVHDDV

With `COc1cnc2c(Cc3cnc(OCc4cc5n(n4)CCOC5)c(OC)c3)ccnc2c1` [Example 73, 2-(((3-methoxy-5-((7-methoxy-1,5-naphthyridin-4-yl)methyl)pyridin-2-yl)oxy)methyl)-6,7-dihydro-4H-pyrazolo[5,1-c][1,4]oxazine], the EC50 in data set [1] was 73.1 nM. Also, the “primary rat microglia survival” value in data set [2] is listed as “dose-dependent inhibition of primary rat microglia survival”. In addition, in data set [3], the “BPB-mouse (Bound) (%)” value amounted to 95.5%. In addition, the pIC50 in data set [4] (recombinant human protein, read-out: cKit IC50) is less than 6.00; in data set [7] (recombinant human protein, read-out: PDGFR-1β IC50) it was less than 6.00. Besides, the “cKit Fold” value in data set [4] (selectivity: IC50 of cKit as multiple of IC50 of CSF-1R) is greater than 100 fold. In addition, the “IV-2mpk T1/2” value in data set [5] (CD1 mouse, i.v. 2 mg/kg) was 2.56 h. The same molecule registered a Kp uu in data set [5] (male, CD1, brain, po, mouse, p.o. 45 mg/kg, BBB penetration) of 0.67. Moreover, the half-life in data set [5] (male, serum, iv, 2 mg/kg, CD1 mouse, i.v. 2 mg/kg, read-out: IV-2mpk T1/2 (converted)) was 2.52 h; in data set [5] (male, serum, po, 45 mg/kg, CD1 mouse, p.o. 45 mg/kg, read-out: PO-45mpk T1/2 (converted)) it was 1.57 h. Moreover, the AUC(0-t) in data set [5] (male, CD1, po, mouse, p.o. 45 mg/kg, brain, read-out: PO-45mpk AUClast-brain) was 31.8 µg·h/mL; in data set [5] (male, CD1, po, mouse, p.o. 45 mg/kg, plasma, Tables 7 and 8, read-out: PO-45mpk AUClast-plasma), 214 µg·h/mL; in data set [5] (male, serum, iv, CD1 mouse, i.v. 2 mg/kg, read-out: IV-2mpk AUClast) it was 9.09 µg·h/mL; in data set [5] (male, serum, po, CD1 mouse, p.o. 45 mg/kg, Tables 5 and 6, read-out: PO-45mpk AUClast), 202 µg·h/mL. Moreover, the AUC(0-inf) in data set [5] (male, serum, iv, CD1 mouse, i.v. 2 mg/kg, read-out: IV-2mpk AUCInf) was determined as 9.09 µg·h/mL; in data set [5] (male, serum, po, CD1 mouse, p.o. 45 mg/kg, read-out: PO-45mpk AUCInf), 202 µg·h/mL. For the same molecule, in data set [5] (male, serum, iv, CD1 mouse, i.v. 2 mg/kg, read-out: IV-2mpk CL (converted)), the clearance was 3.67 mL/min/kg. The Vd in data set [5] (male, serum, iv, CD1 mouse, i.v. 2 mg/kg, read-out: IV-2mpk VSS) is 0.461 L/kg. In data set [5] (male, serum, po, CD1 mouse, p.o. 45 mg/kg vs i.v. 2 mg/kg), this molecule yielded a bioavailability of 98.8%. For the same molecule, the peak concentration (Cmax) in data set [5] (male, serum, po, CD1 mouse, p.o. 45 mg/kg, read-out: PO-45mpk Cmax) was 100 µg/mL. Besides, the time to peak (Tmax) in data set [5] (male, serum, po, CD1 mouse, p.o. 45 mg/kg, read-out: PO-45mpk Tmax) came to 0.5 h. In data set [6], the “hiPSC-MG survival IC50 compared with BLZ945” value was “lower than that of BLZ945”. Moreover, in data set [6] (FIG. 7B), the hiPSC-MG survival result is “dose-dependent inhibition of hiPSC-MG survival”. Further, the “PDGFR-1β Fold” value in data set [7] (selectivity: IC50 of PDGFR-1β as multiple of IC50 of CSF-1R) was greater than 100 fold.

Values taken from patent US20250360145A1, “CSF-1R INHIBITORS AND USES THEREOF” (Myrobalan Therapeutics, Inc., priority 2022, published 2025).
